Patent US5648367A, “Aminoalkyloximes” (Hoechst Marion Roussel, Inc., priority 1995, dated 1997)
Where a name gives a salt, the structure may show the parent alone.

Test system: Serotonin Reuptake
Experiment: in vitro inhibition of serotonin uptake ([3H]-5HT uptake into whole rat brain synaptosomes)
Type: biochemical, rat (Male CR Wistar rats)
Conditions: rat whole brain (minus cerebellum) synaptosomes; 50 nM [3H]-5HT; 5 minutes at 37° C.; pH 7.4; log probit analysis
Description: See, for example, W. K. Goodman, et al., Archives of General Psychiatry, 47, 577 (1990). […] In this assay, a modification of the tests described by A. S. Horn and R. C. A. M. Trace, British Journal of Pharmacology, 51, 399 (1974), A. Nagy and A. V. Delgado-Escueta, Journal of Neurochemistry, 43, 1114 (1984) and P. R. Dunkley, et al., Brain Research, 372, 115 (1986), the following reagents are prepared and employed:
Male CR Wistar rats (100-125 g)
3. Sucrose solution: 0.32M sucrose containing 5 mM HEPES and 0.1 mM EDTA; pH to 7.3 using Tris base.
4. A 0.1 mM stock solution of serotonin creatinine SO4 is made up in 0.01N HCl. This is used to dilute the specific activity of radiolabeled 5HT.
5. 5-[1,2-^3 H(N)]-Hydroxytryptamine creatinine sulfate (serotonin), specific activity 20-30 Ci/mmol, is used. The final desired concentration of [^3 H]-5HT in the assay is 50 nM. The dilution factor is 0.8. The KHBB is made up to contain 62.5 nM of [^3 H]-5HT.
6. For most assays, a 0.5 mM stock solution of the test compound is made up initially in either 10 μl of glacial acetic acid, 100 μl DMSO or 10 μl of the recrystallization solvent, to which is added approximately 10 ml of distilled water. Compounds are initially screened in duplicate at 3 concentrations (10^-8, 10^-7 and 10^-6 M) made up in water. […] To ensure consistency, the standard clomipramine is run with each assay.
Male Wistar rats are decapitated and the brain rapidly removed. Whole brain (minus cerebellum) is weighed and homogenized in 15 volumes of ice cold sucrose solution using a Potter-Elvejhem homogenizer. The following procedures are performed on ice. Homogenization should be done with 4-5 up and down strokes at medium speeds (setting 4.5 to 5) to minimize synaptosome lysis. The homogenate is centrifuged at 1000 g (3000 rpm, Sorvall SS-34 rotor) for 10 minutes at 0°-4° C. The supernatant is removed and approximately 10 ml per tube is carefully layered onto a discontinuous Percoll (Sigma cat# P-1644) gradient: 21% Percoll in sucrose solution at the bottom (15 ml per tube) and 10% Percoll in the middle (10 ml; colored with a few drops of phenol red for visibility).
The Percoil gradient tubes are carefully placed into a Beckman SW-28 swinging bucket rotor and spun in a Beckman XL90 ultracentrifuge using the following program: speed, 11,000 rpm (15,000 g) for 30 minutes at 4° C.; slow acceleration and deceleration (acceleration setting 9; deceleration setting 3). Tubes are carefully removed, and the top layer and the top part of the middle (red) layers are discarded using a pasteur pipette. The synaptosomes are located in the white fluffy band at the interface between the 10% and 21% Percoll layers. This is carefully removed, placed in a centrifuge tube, diluted with KHBB and spun at 21,000 g (13,000 rpm, Sorvall SS-34 rotor). The pellet (synaptosomes) is resuspended in KHBB (10 vol per gram original brain wet weight; 1 brain minus cerebellum weighs approximately 1.2 g; 2.5 brains are needed per typical assay).
20 μl Vehicle or appropriate drug
200 μl of the tissue suspension are added to each of 24 tubes (at a time) containing the 20 μl of vehicle or drug on ice. Three minutes later, 800 μl of KHBB containing [^3 H]-5HT are added, and tubes are vortexed. The rack containing the 24 tubes is moved from the ice bath to a water bath set at 37° C. The tubes are incubated for 5 minutes under 95% oxygen/5% carbon dioxide. Uptake is terminated by filtration through GF/B filter strips using a Brandel cell harvester (filter strips are presoaked in ice cold filtration buffer). Tubes are washed once with 5 ml of ice cold filtration buffer. Filter disks are placed in scintillation vials to which are added 10 ml of scintillation fluid (EcoScint). Filters are allowed to sit overnight before being counted.
For each assay, 3 tubes are incubated with 20 μl of vehicle at both 37° C. and 0° C.

Q: How did the IC50 turn out when NCCON=C(CCCn1ccnc1)c1ccc(C(F)(F)F)cc1 [4-(1-(1H)-Imidazolyl)-1-(4-trifluoromethylphenyl)-1-butanone O-(2-aminoethyl)oxime dihydrochloride] was run?
A: 80 nM

Q: How did the IC50 turn out when Cc1nccn1CCCC(=NOCCN)c1ccccc1 [4-(2-Methyl-1-(1H)-imidazolyl)-1-phenyl-1-butanone O-(2-aminoethyl)oxime dihydrochloride] was run?
A: 656 nM

Q: For NCCON=C(CCn1ccnc1)c1ccc(C(F)(F)F)cc1 [3-(1-(1H)-Imidazolyl)-1-(4-trifluoromethylphenyl)-1-propanone O-(2-aminoethyl)oxime dihydrochloride], which IC50 is on record?
A: 164 nM

Q: How did the IC50 turn out when NCCON=C(CCn1ccnc1)c1ccc(Cl)cc1 [4'-Chloro-3-(1-(1H)-imidazolyl)propiophenone O-(2-aminoethyl)oxime difumarate] was run?
A: 128 nM

Q: NCCON=C(CCCn1ccnc1)c1ccc(F)cc1 [1-(4-Fluorophenyl)-4-(1-(1H)-imidazolyl)-1-butanone O-(2-aminoethyl)oxime dihydrochloride] was tested. Which IC50 did it give?
A: 257 nM

Q: For NCCON=C(CCCn1ccnc1)c1ccccc1 [4-(1-(1H)-Imidazolyl)-1-phenyl-1-butanone O-(2-aminoethyl)oxime dihydrochloride], which IC50 is on record?
A: 1810 nM

Q: COc1ccc(C(CCn2ccnc2)=NOCCN)cc1 [4'-Methoxy-3-(1-(1H)-imidazolyl)propiophenone O-(2-aminoethyl)oxime difumarate hydrate] was tested. Which IC50 did it give?
A: 1280 nM

Q: How did the IC50 turn out when NCCON=C(CCCn1ccnc1)c1ccc(Cl)cc1 [1-(4-Chlorophenyl)-4-(1-(1H)-imidazolyl)-1-butanone O-(2-aminoethyl)oxime dihydrochloride] was run?
A: 160 nM
